Structures can show the parent of a compound that is named as a salt.
Key:
IL-23p19 = test: LPS Induced IL23p19 in THP-1 Cells (with IFNγ Primed) Assay; assay type: cell-based, human; conditions: Homo sapiens, THP-1, THP-1 cells, IFNγ (50 ng/mL) primed, 1 hour compound pre-incubation, LPS 1 ug/mL 18 hours, 10 pt; read-out: IL23-p19 ELISA, THP1-IFNy, LPS, 10 pt EC50
Method in brief: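 THP-1 cells (50K/well) primed ~18 h with IFNγ (50 ng/mL) in RPMI/10% FBS, then incubated with compound in duplicate for 18 h at 37° C. Supernatant IL-23p19 measured by chemiluminescent sandwich ELISA, giving EC50 by curve fitting. Toxicity assessed in parallel on the remaining cells by Cell Titer Glo.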

IL-23 (p19/p40) = test: IL23-p19 ELISA, dendritic cells (DC differentiated from human PBMC, IFNγ primed), LPS stimulated; assay type: cell-based; conditions: Dendritic cell, human PBMC-derived dendritic cells, 1 h compound pre-incubation, LPS 1 μg/ml 18 hours, 10 pt
Method in brief: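 PBMC-derived DCs (GM-CSF 100 ng/ml + IL-4 20 ng/ml, 7 days) primed 24 h with IFNγ 50 ng/ml, 50K cells/well; compound pre-incubated 1 h at 37° C, then LPS, 18 h. Supernatant IL-23 by p19-capture/p40-detection chemiluminescent ELISA; cytotoxicity by Cell Titer Glo.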

Compound	EC50 (IL-23p19)	EC50 (IL-23 (p19/p40))
Cn1cc(NC(=O)c2cccc(-c3cc[nH]n3)n2)c(-c2ccc(OCC(C)(C)O)cn2)n1 [Compound I-180, N-(3-(5-(2-hydroxy-2-methylpropoxy)pyridin-2-yl)-1-methyl-1H-pyrazol-4-yl)-6-(1H-pyrazol-3-yl)picolinamide]	340 nM	1190 nM
CC(=O)Nc1ccc(-c2cccc(C(=O)Nc3cn(C)nc3-c3cnccn3)n2)cn1 [Compound I-102, 6′-acetamido-N-(1-methyl-3-(pyrazin-2-yl)-1H-pyrazol-4-yl)-[2,3′-bipyridine]-6-carboxamide]	26700 nM	2040 nM
CCO[C@H]1CC[C@H](n2cc(NC(=O)c3cccc(-c4cn[nH]c4)n3)c(-c3ncc(F)cc3F)n2)CC1 [Compound I-184, N-(3-(3,5-difluoropyridin-2-yl)-1-(trans-4-ethoxycyclohexyl)-1H-pyrazol-4-yl)-6-(1H-pyrazol-4-yl)picolinamide]	328 nM	8250 nM
Cn1cc(NC(=O)c2cncc(-c3cc[nH]n3)n2)c(-c2ccccn2)n1 [Compound I-123, N-(1-methyl-3-(pyridin-2-yl)-1H-pyrazol-4-yl)-6-(1H-pyrazol-3-yl)pyrazine-2-carboxamide]	921 nM	738 nM
COCCOCCn1cc(NC(=O)c2cccc(-c3cn[nH]c3)n2)c(-c2ccccn2)n1 [Compound I-153, N-(1-(2-(2-methoxyethoxy)ethyl)-3-(pyridin-2-yl)-1H-pyrazol-4-yl)-6-(1H-pyrazol-4-yl)picolinamide formate]	463 nM	628 nM
CN1CCN(CCn2cc(NC(=O)c3cccc(-c4cn[nH]c4)n3)c(-c3ccccn3)n2)CC1 [Compound I-86, N-(1-(2-(4-methylpiperazin-1-yl)ethyl)-3-(pyridin-2-yl)-1H-pyrazol-4-yl)-6-(1H-pyrazol-4-yl)picolinamide]	98.5 nM	407 nM
COCCOCCn1cc(NC(=O)c2cccc(-c3ccco3)n2)c(-c2ccccn2)n1 [Compound I-152, 6-(furan-2-yl)-N-(1-(2-(2-methoxyethoxy)ethyl)-3-(pyridin-2-yl)-1H-pyrazol-4-yl)picolinamide 2,2,2-trifluoroacetate]	12400 nM	14200 nM
Cn1cc(NC(=O)c2cccc(-c3cn[nH]c3)n2)c(N2CCOCC2)n1 [Compound I-74, N-(1-methyl-3-morpholino-1H-pyrazol-4-yl)-6-(1H-pyrazol-4-yl)picolinamide]	18800 nM	3820 nM
O=C(Nc1cn(C2COC2)nc1-c1ccccn1)c1cccc(-c2cc[nH]n2)n1 [Compound I-117, N-(1-(oxetan-3-yl)-3-(pyridin-2-yl)-1H-pyrazol-4-yl)-6-(1H-pyrazol-3-yl)picolinamide]	156 nM	100 nM
O=C(Nc1cn(C2CCOCC2)nc1-c1ccccn1)c1cccc(-c2cc[nH]n2)n1 [Compound I-166, 6-(1H-pyrazol-3-yl)-N-(3-(pyridin-2-yl)-1-(tetrahydro-2H-pyran-4-yl)-1H-pyrazol-4-yl)picolinamide]	1090 nM	71 nM
COCCOCCn1cc(NC(=O)c2cccc(-c3cc[nH]n3)n2)c(-c2ccccn2)n1 [Compound I-150, N-(1-(2-(2-methoxyethoxy)ethyl)-3-(pyridin-2-yl)-1H-pyrazol-4-yl)-6-(1H-pyrazol-3-yl)picolinamide formate]	3390 nM	66.2 nM
Cn1cc(NC(=O)c2cccc(-c3cc[nH]n3)n2)c(-c2ccc(OC3COC3)cn2)n1 [Compound I-183, N-(1-methyl-3-(5-(oxetan-3-yloxy)pyridin-2-yl)-1H-pyrazol-4-yl)-6-(1H-pyrazol-3-yl)picolinamide]	96.1 nM	216 nM

Now from value to compound:

EC50 (IL-23p19)	EC50 (IL-23 (p19/p40))	Compound
2070 nM	19300 nM	Cc1cncc(-c2cccc(C(=O)Nc3cn(C)nc3-c3ccc(OCC(C)(C)O)cn3)n2)c1 [Compound I-178, N-(3-(5-(2-hydroxy-2-methylpropoxy)pyridin-2-yl)-1-methyl-1H-pyrazol-4-yl)-5′-methyl-[2,3′-bipyridine]-6-carboxamide]
2290 nM	1790 nM	Cn1cc(NC(=O)c2cccc(-c3cncc(OC4CCOCC4)c3)n2)c(-c2ccccn2)n1 [Compound I-23, N-(1-methyl-3-(pyridin-2-yl)-1H-pyrazol-4-yl)-5′-((tetrahydro-2H-pyran-4-yl)oxy)-[2,3′-bipyridine]-6-carboxamide]
4480 nM	1110 nM	COc1ccc(-c2cccc(C(=O)Nc3cn(C)nc3-c3ccccn3)n2)cc1 [Compound I-52, 6-(4-methoxyphenyl)-N-(1-methyl-3-(pyridin-2-yl)-1H-pyrazol-4-yl)picolinamide]
325 nM	1280 nM	O=C(Nc1cn(C2COC2)nc1-c1ccccn1)c1cccc(-c2cccnc2)n1 [Compound I-112, N-(1-(oxetan-3-yl)-3-(pyridin-2-yl)-1H-pyrazol-4-yl)-[2,3′-bipyridine]-6-carboxamide]
75.4 nM	2000 nM	Cc1cncc(-c2cccc(C(=O)Nc3cn(CCN4CCN(C)CC4)nc3-c3ccccn3)n2)c1 [Compound I-87, 5′-methyl-N-(1-(2-(4-methylpiperazin-1-yl)ethyl)-3-(pyridin-2-yl)-1H-pyrazol-4-yl)-[2,3′-bipyridine]-6-carboxamide]
5960 nM	4920 nM	O=C(Nc1cn(CCO)nc1-c1ccccn1)c1cccc(-c2ccncc2)n1 [Compound I-108, N-(1-(2-hydroxyethyl)-3-(pyridin-2-yl)-1H-pyrazol-4-yl)-[2,4′-bipyridine]-6-carboxamide formate]
54900 nM	7760 nM	O=C(Nc1cn(C2COC2)nc1-c1ccccn1)c1cccc(-c2cncc(C(F)(F)F)c2)n1 [Compound I-132, N-(1-(oxetan-3-yl)-3-(pyridin-2-yl)-1H-pyrazol-4-yl)-5′-(trifluoromethyl)-[2,3′-bipyridine]-6-carboxamide]
1450 nM	546 nM	CC(C)Nc1cncc(-c2cccc(C(=O)Nc3cn(C)nc3-c3ccccn3)n2)c1 [Compound I-28, 5′-(isopropylamino)-N-(1-methyl-3-(pyridin-2-yl)-1H-pyrazol-4-yl)-[2,3′-bipyridine]-6-carboxamide]
349 nM	1760 nM	Cn1cc(NC(=O)c2cccc(-c3cnc4[nH]ccc4c3)n2)c(-c2ccccn2)n1 [Compound I-44, N-(1-methyl-3-(pyridin-2-yl)-1H-pyrazol-4-yl)-6-(1H-pyrrolo[2,3-b]pyridin-5-yl)picolinamide]
1700 nM	2420 nM	Cn1cc(-c2cccc(C(=O)Nc3cn(C)nc3-c3ccccn3)n2)cn1 [Compound I-8, 6-(1-methyl-1H-pyrazol-4-yl)-N-(1-methyl-3-(pyridin-2-yl)-1H-pyrazol-4-yl)picolinamide]
536 nM	162 nM	Cn1cc(NC(=O)c2cccc(-c3ccn[nH]3)n2)c(-c2ccccn2)n1 [Compound I-6, N-(1-methyl-3-(pyridin-2-yl)-1H-pyrazol-4-yl)-6-(1H-pyrazol-5-yl)picolinamide]
2780 nM	6470 nM	Cc1cncc(-c2cccc(C(=O)Nc3cn(C(C)C)nc3-c3ccccn3)n2)c1 [Compound I-81, N-(1-isopropyl-3-(pyridin-2-yl)-1H-pyrazol-4-yl)-5′-methyl-[2,3′-bipyridine]-6-carboxamide]

From patent US10947216B2, “Amide compounds and method for making and using” (Rigel Pharmaceuticals, Inc., priority 2016, dated 2021)
